ChEMBL document CHEMBL6092169, “Development of selective heterocyclic PDE4 inhibitors for treatment of psoriasis” (Eur J Med Chem, 2024)
The source made the active and inactive calls. No cut-off for these calls is given here.

How the values were obtained:
RAW264.7 [1] = test: Anti-inflammatory activity in mouse RAW264.7 cells assessed as inhibition of LPS-induced TNF-alpha production incubated for 24 hrs by ELISA; type: functional, cell-based; conditions: RAW264.7, 24 h
[2] = Cytotoxicity against mouse RAW264.7 cells assessed as reduction in cell viability incubated for 24 hrs by CCK-8 assay; type: toxicity, cell-based
[3] = Cytotoxicity against human HaCaT cells assessed as reduction in cell viability incubated for 24 hrs by CCK-8 assay; type: toxicity, cell-based
RAW264.7 [4] = test: Anti-inflammatory activity in mouse RAW264.7 cells assessed as inhibition of LPS-induced IL-6 production incubated for 24 hrs by ELISA; type: functional, cell-based; conditions: RAW264.7, 24 h
HaCaT = test: Anti-inflammatory activity in human HaCaT cells assessed as inhibition of M5-induced TNF-alpha production incubated for 24 hrs by ELISA; type: functional, cell-based
[5] = AUC (0 to t) in male ICR mouse at 5 mg/kg, iv measured for 0.083 to 24 hrs by LC-MS/MS analysis; type: ADME, organism-based; conditions: in vivo, time 0.083-24 hrs
[6] = AUC (0 to t) in male ICR mouse at 10 mg/kg, po measured for 0.25 to 24 hrs by LC-MS/MS analysis; type: ADME, organism-based; conditions: in vivo, time 0.25-24 hrs
[7] = AUC (0 to infinity) in male ICR mouse at 5 mg/kg, iv measured for 0.083 to 24 hrs by LC-MS/MS analysis; type: ADME, organism-based; conditions: in vivo, time 0.083-24 hrs
[8] = AUC (0 to infinity) in male ICR mouse at 10 mg/kg, po measured for 0.25 to 24 hrs by LC-MS/MS analysis; type: ADME, organism-based; conditions: in vivo, time 0.25-24 hrs
[9] = Initial plasma concentration in male ICR mouse at 5 mg/kg, iv measured for 0.083 to 24 hrs by LC-MS/MS analysis; type: ADME, organism-based; conditions: time 0.083-24 hrs
[10] = Cmax in male ICR mouse at 10 mg/kg, po measured for 0.25 to 24 hrs by LC-MS/MS analysis; type: ADME, organism-based; conditions: in vivo, time 0.25-24 hrs
[11] = Half life in male ICR mouse at 5 mg/kg, iv measured for 0.083 to 24 hrs by LC-MS/MS analysis; type: ADME, organism-based; conditions: in vivo, time 0.083-24 hrs
[12] = Half life in male ICR mouse at 10 mg/kg, po measured for 0.25 to 24 hrs by LC-MS/MS analysis; type: ADME, organism-based; conditions: in vivo, time 0.25-24 hrs
[13] = Apparent volume of distribution in male ICR mouse at 5 mg/kg, iv measured for 0.083 to 24 hrs by LC-MS/MS analysis; type: ADME, organism-based; conditions: in vivo, time 0.083-24 hrs, read-out: Vz
[14] = Tmax in male ICR mouse at 10 mg/kg, po measured for 0.25 to 24 hrs by LC-MS/MS analysis; type: ADME, organism-based; conditions: in vivo, time 0.25-24 hrs
[15] = Clearance in male ICR mouse at 5 mg/kg, iv measured for 0.083 to 24 hrs by LC-MS/MS analysis; type: ADME, organism-based; conditions: in vivo, time 0.083-24 hrs
[16] = Oral bioavailability in male ICR mouse at 10 mg/kg measured for 0.25 to 24 hrs by LC-MS/MS analysis; type: ADME, organism-based; conditions: in vivo, time 0.25-24 hrs
[17] = Drug absorption in suckling pig skin assessed as skin permeability by measuring transdermal amount per unit area administered topically as 1.2% ointment and measured upto 24 hrs by Franz diffusion cell system; type: ADME, tissue-based, Sus scrofa, Skin of body
[18] = Drug absorption in suckling pig skin assessed as skin permeability by measuring steady state penetration rate administered topically as 1.2% ointment and measured upto 24 hrs by Franz diffusion cell system; type: ADME, tissue-based, Sus scrofa, Skin of body
Mus musculus [19] = species on record: Mus musculus; test: Anti-inflammatory activity against imiquimod-induced psoriasis in male Balb/c mouse model assessed as reduction in skin lesions pretreated with IMQ for 4 hrs followed by compound addition once daily from day 2 to 8; type: functional, organism-based; conditions: dose 0.3-1.2 %, time 2-8 day
Mus musculus [20] = test: Anti-inflammatory activity against imiquimod-induced psoriasis in male Balb/c mouse model assessed as reduction in scales score at 0.3 to 1.2 % administration as ointment pretreated with IMQ for 4 hrs followed by compound addition once daily from day 2 to 8; type: functional, organism-based; conditions: dose 0.3-1.2 %, time 2-8 day
Mus musculus [21] = test: Anti-inflammatory activity against imiquimod-induced psoriasis in male Balb/c mouse model assessed as reduction in thickness score at 0.3 to 1.2 % administration as ointment pretreated with IMQ for 4 hrs followed by compound addition once daily from day 2 to 8; type: functional, organism-based; conditions: dose 0.3-1.2 %, time 2-8 day
Mus musculus [22] = test: Anti-inflammatory activity against imiquimod-induced psoriasis in male Balb/c mouse model assessed as reduction in erythema score at 0.3 to 1.2 % administration as ointment pretreated with IMQ for 4 hrs followed by compound addition once daily from day 2 to 8; type: functional, organism-based; conditions: dose 0.3-1.2 %, time 2-8 day
Mus musculus [23] = test: Anti-inflammatory activity against imiquimod-induced psoriasis in male Balb/c mouse model assessed as reduction in spleen weight at 0.3 to 1.2 % administration as ointment pretreated with IMQ for 4 hrs followed by compound addition once daily from day 2 to 8; type: functional, organism-based; conditions: dose 0.3-1.2 %, time 2-8 day
Mus musculus [24] = test: Anti-inflammatory activity against imiquimod-induced psoriasis in male Balb/c mouse model assessed as inhibition of IL-6 expression in skin at 0.3 to 1.2 % administration as ointment pretreated with IMQ for 4 hrs followed by compound addition once daily from day 2 to 8 by ELISA; type: functional, organism-based; conditions: dose 0.3-1.2 %, time 2-8 day
Mus musculus [25] = test: Anti-inflammatory activity against imiquimod-induced psoriasis in male Balb/c mouse model assessed as inhibition of TNF-alpha expression in skin at 0.3 to 1.2 % administration as ointment pretreated with IMQ for 4 hrs followed by compound addition once daily from day 2 to 8 by ELISA; type: functional, organism-based; conditions: dose 0.3-1.2 %, time 2-8 day
Mus musculus [26] = test: Anti-inflammatory activity against imiquimod-induced psoriasis in male Balb/c mouse model assessed as increase in skin thickness at 0.3 to 1.2 % administration as ointment pretreated with IMQ for 4 hrs followed by compound addition once daily from day 2 to 8 by H and E staining based microscopic analysis; type: functional, organism-based; conditions: dose 0.3-1.2 %, time 2-8 day
Mus musculus [27] = test: Anti-inflammatory activity against imiquimod-induced psoriasis in male Balb/c mouse model assessed as increase in skin scales at 0.3 to 1.2 % administration as ointment pretreated with IMQ for 4 hrs followed by compound addition once daily from day 2 to 8 by H and E staining based microscopic analysis; type: functional, organism-based; conditions: dose 0.3-1.2 %, time 2-8 day
Mus musculus [28] = test: Anti-inflammatory activity against imiquimod-induced psoriasis in male Balb/c mouse model assessed as reduction in immune cell infiltration at 0.3 to 1.2 % administration as ointment pretreated with IMQ for 4 hrs followed by compound addition once daily from day 2 to 8 by H and E staining based microscopic analysis; type: functional, organism-based; conditions: dose 0.3-1.2 %, time 2-8 day
Mus musculus [29] = test: Anti-inflammatory activity against imiquimod-induced psoriasis in male Balb/c mouse model assessed as reduction in Ki67+ cells in back skin at 0.3 to 1.2 % administration as ointment pretreated with IMQ for 4 hrs followed by compound addition once daily from day 2 to 8 by Immunohistochemistry based microscopic analysis; type: functional, organism-based; conditions: dose 0.3-1.2 %, time 2-8 day

## O=C(NCc1cc(F)ccc1F)c1c[nH]c(-c2ccc(OC(F)F)c(OCC3CC3)c2)n1
RAW264.7 [1]
  IC50: 21.4 µM
[2]
  CC50 at 24 h: > 50 µM
[3]
  CC50 at 24 h: > 50 µM
RAW264.7 [4]
  IC50: 29.2 µM
HaCaT
  IC50: 22.9 µM
[5]
  AUC(0-t): 5010 ng·h/mL
[6]
  AUC(0-t): 3570 ng·h/mL
[7]
  AUC(0-inf): 5020 ng·h/mL
[8]
  AUC(0-inf): 3930 ng·h/mL
[9]
  C0: 7320 ng/mL
[10]
  Cmax: 810 ng/mL
[11]
  half-life: 0.94 h
[12]
  half-life: 2.21 h
[13]
  Vd: 1.35 L/kg
[14]
  Tmax: 1 h
[15]
  clearance: 16.6 mL/min/kg
[16]
  bioavailability: 35.6%
[17]
  Drug absorption: 81.9 microg/cm2
[18]
  Jss: 3.45 ug/cm2.hr
Mus musculus [19]
  Activity: Dose-dependent-effect
Mus musculus [20]
  Activity: Active
Mus musculus [21]
  Activity: Active
Mus musculus [22]
  Activity: Active
Mus musculus [23]
  Activity: Active
Mus musculus [24]
  Activity: Active
Mus musculus [25]
  Activity: Active
Mus musculus [26]
  Activity: Active
Mus musculus [27]
  Activity: Active
Mus musculus [28]
  Activity: Active
Mus musculus [29]
  Activity: Active
